Measured values: US7612067B2, “Imidazopyridazine compounds” (Eli Lilly and Company, priority 2005, dated 2009)
Substitutions are numbered along the chain they refer to. Structures can show the parent of a compound that is named as a salt. Where two headings read alike, the source gives them in different places.

Key:
[1] = Volume of distribution after single intravenous dose; assay type: in vivo, rat; details: male Sprague Dawley rats, single 3 mg/kg intravenous dose
Experimental: The volume of distribution (Vdist) relates the amount of the drug in the body to the concentration of the drug in the blood or plasma. The volume of distribution refers to the fluid volume that would be required to contain the total amount of the drug in the body at the same concentration as in the blood or plasma: Vdist=amount of drug in the body/concentration of drug in blood or plasma (Goodman and Gillman's). For a 10 mg dose and a plasma concentration of 10 mg/L, the volume of distribution would be 1 liter. The volume of distribution reflects the extent to which the drug is present in the extravascular tissue. A large volume of distribution reflects the tendency of a compound to bind to the tissue components compared with plasma protein binding. In a clinical setting, Vdist can be used to determine a loading dose achieve a steady state concentration.
To test for volume of distribution, Male Sprague Dawley rats (N=3) are administered a single 3 mg/kg intravenous dose of compound. Multiple plasma samples are collected at time points from 0.08 to 24 hours post-dose. The plasma samples are analyzed by LC/MS/MS to determine the plasma concentrations. Plasma pharmacokinetic calculations are performed to determine the pharmacokinetic parameters including Vdist and plasma clearance (Clp).

[2] = target: T1, binding of 125I-sauvagine to the cerebellum (Rattus norvegicus, UniProt P35353); assay: In vivo potency assessment using ex vivo binding; details: oral route, ex vivo 125I-sauvagine binding to cerebellum
T1 construct: from tissue; host or cells: rat cerebellum
T1 sequence (P35353 24-415): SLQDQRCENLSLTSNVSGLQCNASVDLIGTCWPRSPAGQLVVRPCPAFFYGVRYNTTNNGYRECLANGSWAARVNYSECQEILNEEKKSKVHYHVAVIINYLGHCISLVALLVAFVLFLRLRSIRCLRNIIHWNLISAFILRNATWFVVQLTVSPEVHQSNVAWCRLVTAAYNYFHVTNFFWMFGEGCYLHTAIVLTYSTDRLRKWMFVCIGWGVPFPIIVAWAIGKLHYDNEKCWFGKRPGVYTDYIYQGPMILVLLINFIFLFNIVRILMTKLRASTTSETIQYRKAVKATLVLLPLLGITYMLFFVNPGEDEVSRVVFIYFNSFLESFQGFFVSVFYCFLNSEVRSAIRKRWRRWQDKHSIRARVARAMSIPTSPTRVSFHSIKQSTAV
Experimental: To assess in vivo potency, a compound of the present invention is evaluated using ex vivo binding. Using the procedures as provided in D. R. Gehlert et al., EJP 509: 145-153 (2005), a compound is administered to a rat via the oral route.

human CRF1 = target: T2, human CRF1 (Homo sapiens, UniProt P34998); assay: CRF1 filter binding assay; details: HEK-hCRF1 membranes, 125I-sauvagine; read-out: Ki (inhibition constant)
T2 construct: expressed in transfected cells; membranes used
T2 sequence (P34998 24-415): T1 sequence (P35353 24-415) with R6H, N9S, T13A, V16I, V153M, A163G, V209I, H229Y, R356H
Experimental: The limitations of plasmid-based human CRF1 expression, in terms of generating a recombinant cell line with sufficient receptor density to develop a binding assay, are overcome by using a Phoenix retroviral expression system licensed from Stanford. The stable HEK-hCRF1 cell line is used to prepare membranes and binding reactions (200 μl) are set up as follows: 50 μl of ^125I-sauvagine (0.2 nM final), 50 μl compound and 100 μl CRF1 membrane (25 μg/reaction). The reactions are incubated at room temperature for 2 hours and then terminated by filtration through pre-treated FB Millipore glass fiber filter plates (96 well). The plates are wash twice with ice-cold assay buffer (50 mM tris, 12.5 mM NaCl, 1 mM EDTA, 10 mM MgCl2, 0.05% BSA, pH 7.2), air dried over night and counted with 100 μl Microscint 40 in a MicroBeta counter. Non-specific binding (NSB) is determined in the presence of 0.5 μM non-labeled sauvagine. Triplicate determinations are typically run and the median data points plotted by Graph Pad Prism.

human CRF2 = target: T3, human CRF2 (Homo sapiens, UniProt Q13324); assay: CRF2 filter binding assay; details: 50 μM compound, HEK-hCRF2 membranes, 125I-sauvagine
T3 construct: expressed in transfected cells; membranes used
T3 sequence (Q13324 1-411): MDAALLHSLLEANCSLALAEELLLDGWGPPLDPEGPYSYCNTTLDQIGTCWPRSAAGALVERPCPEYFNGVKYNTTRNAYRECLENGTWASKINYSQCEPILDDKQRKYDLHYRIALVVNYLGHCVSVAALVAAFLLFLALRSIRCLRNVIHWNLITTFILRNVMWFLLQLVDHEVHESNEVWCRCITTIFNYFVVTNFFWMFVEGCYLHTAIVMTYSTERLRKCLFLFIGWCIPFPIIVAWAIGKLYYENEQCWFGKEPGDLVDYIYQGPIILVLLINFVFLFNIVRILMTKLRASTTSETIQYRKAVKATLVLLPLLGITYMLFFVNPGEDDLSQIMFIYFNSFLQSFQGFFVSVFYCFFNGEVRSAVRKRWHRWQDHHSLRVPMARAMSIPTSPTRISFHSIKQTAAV
Experimental: The limitations of plasmid-based human CRF2 expression, in terms of generating a recombinant cell line with sufficient receptor density to develop a binding assay, are overcome by using a Phoenix retroviral expression system licensed from Stanford. The stable HEK-hCRF2 cell line is used to prepare membranes and binding reactions (200 μl) are set up as follows: 50 ul of ^125I-sauvagine (0.2 nM final concentration), 50 μl compound and 100 μl CRF2 membrane (25 μg/reaction). The reactions are incubated at room temperature for 2 hours and then terminated by filtration through pre-treated FB Millipore glass fiber filter plates (96 well). The plates are washed twice with ice-cold assay buffer (50 mM tris, 12.5 mM NaCl, 1 mM EDTA, 10 mM MgCl2, 0.05% BSA, pH 7.2), air dried over night and counted with 100 μl Microscint 40 in a MicroBeta counter. Non-specific binding (NSB) is determined in the presence of 0.5 μM non-labeled sauvagine. Alternatively, compounds are evaluated using a Scintillation Proximity assay. […] Bound radioactivity is assessed using a Wallac Trilux scintillation counter. Binding is assessed typically using triplicate determinations and the median data points plotted by Graph Pad Prism. […]

[3] = single intravenous dose, comparison CRF antagonists with literature references; cited from earlier work

With `CCC(CC)c1cc(C)nn2c(-c3sc(N4CCOCC4)nc3Cl)c(C)nc12` [Example 199, N-{4-chloro-5-[8-(1-ethyl-propyl)-2,6-dimethyl-imidazo[1,2-b]pyridazin-3-yl]-thiazol-2-yl}-morpholine] the “rat Vdist” value [1] was 2 L/kg, the ED50 [2] was 1.3 mg/kg and the Ki (human CRF1) was 9.98 ± 0.72 nM. For the same molecule, the “percent inhibition at 50 μM” value (human CRF2) was 16.9±1.9%.

With `CCC(CC)c1cc(C)nn2c(-c3sc(-c4ccc(F)cc4)cc3C)c(C)nc12` [Example 39, 8-(1-ethyl-propyl)-3-[5-(4-fluoro-phenyl)-3-methyl-thiophen-2-yl]-2,6-dimethyl-imidazo[1,2-b]pyridazine] the “rat Vdist” value [1] was 17 L/kg.

In the case of `CCCCN(CC)c1nc(C)nc2c1c(C)cn2-c1c(C)cc(C)cc1C` [CP154526], the “rat Vdist” value [3] is listed as 114 L/kg.

With `CCC(CC)c1cc(C)nn2c(-c3sc(N4CCOCC4)nc3Cl)c(C)nc12` [Example 102, N-{4-chloro-5-[8-(1-ethyl-propyl)-2,6-dimethyl-imidazo[1,2-b]pyridazin-3-yl]-thiazol-2-yl}-morpholine, hydrochloride salt] the Ki (human CRF1) was 4.92 ± 0.57 nM and the inhibition at 50 µM (human CRF2; read-out: percent inhibition at 50 μM) was 9 ± 2.6%.

In the case of `CCCN(CCC)c1cc(C)nc2c(-c3cnc(N(C)C)cc3C)c(C)nn12` [NBI30775], the “rat Vdist” value [3] is listed as 76 L/kg.

For `CCC(CC)c1cc(C)nn2c(-c3sc(-c4ncnn4C)nc3Br)c(C)nc12` [Example 48, 3-[4-bromo-2-(2-methyl-2H-[1,2,4]triazol-3-yl)-thiazol-5-yl]-8-(1-ethyl-propyl)-2,6-dimethyl-imidazo[1,2-b]pyridazine], the “rat Vdist” value [1] was 9 L/kg.

For `CCC(CC)c1cc(C)nn2c(-c3sc(-c4ncnn4C)cc3Cl)c(C)nc12` [Example 88, 3-[3-chloro-5-(2-methyl-2H-[1,2,4]triazol-3-yl)-thiophen-2-yl]-8-(1-ethyl-propyl)-2,6-dimethyl-imidazo[1,2-b]pyridazine], the “rat Vdist” value [1] was 44 L/kg.
